Measured values taken from patent US20250214991A1 (Oncopia Therapeutics, Inc. d/b/a/ SK Life Science Labs, priority 2022, published 2025).

Legend:
[1] = target: IKZF1 (Homo sapiens (Human), UniProt Q13422+Q96SW2); assay: In vitro IKZF1 HiBit Assay (HEK293T Flp-in-HiBiT-IKZF1 stable cell line); assay type: cell-based; settings: HEK293T Flp-in-HiBiT-IKZF1 stable cell line, 6 hrs incubation; for DC50: read-out: IKZF1 HiBit DC50; for Dmax: HEK-293T, read-out: IKZF1 HiBit Dmax (%)
Summary of the method: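 Degradation was measured as loss of luminescence from the HiBiT-IKZF1 tag after 6 h compound treatment, with 0.1% final DMSO, in stable HEK293T Flp-in cells. Values were normalized to DMSO, giving the 50% degradation concentration and the maximal degradation range.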

[2] = target: IKZF2 (Homo sapiens (Human), UniProt Q96SW2+Q9UKS7); assay: In vitro IKZF2 HiBit Assay (HEK293T Flp-in-HiBiT cells); assay type: cell-based; settings: HEK293T Flp-in-HiBiT cells, 6 hrs incubation; for DC50: read-out: IKZF2 HiBit DC50; for Dmax: HEK-293T, read-out: IKZF2 HiBit Dmax (%)
Chain of IKZF2 (Q9UKS7 whole entry): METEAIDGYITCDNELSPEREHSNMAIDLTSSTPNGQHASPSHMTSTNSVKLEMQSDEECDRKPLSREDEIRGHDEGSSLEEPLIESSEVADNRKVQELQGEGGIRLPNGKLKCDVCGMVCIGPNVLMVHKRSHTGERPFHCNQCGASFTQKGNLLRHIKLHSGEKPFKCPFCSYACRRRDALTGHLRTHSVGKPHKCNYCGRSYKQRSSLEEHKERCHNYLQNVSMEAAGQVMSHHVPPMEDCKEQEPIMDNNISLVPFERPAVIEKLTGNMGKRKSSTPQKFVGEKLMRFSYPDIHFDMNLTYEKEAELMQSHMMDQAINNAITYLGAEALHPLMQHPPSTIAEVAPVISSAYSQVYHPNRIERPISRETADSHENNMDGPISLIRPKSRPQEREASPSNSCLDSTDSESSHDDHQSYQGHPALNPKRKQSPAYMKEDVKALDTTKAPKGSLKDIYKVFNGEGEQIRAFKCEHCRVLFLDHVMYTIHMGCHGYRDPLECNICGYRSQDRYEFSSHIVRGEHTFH
Chain of IKZF2 (Q96SW2 whole entry): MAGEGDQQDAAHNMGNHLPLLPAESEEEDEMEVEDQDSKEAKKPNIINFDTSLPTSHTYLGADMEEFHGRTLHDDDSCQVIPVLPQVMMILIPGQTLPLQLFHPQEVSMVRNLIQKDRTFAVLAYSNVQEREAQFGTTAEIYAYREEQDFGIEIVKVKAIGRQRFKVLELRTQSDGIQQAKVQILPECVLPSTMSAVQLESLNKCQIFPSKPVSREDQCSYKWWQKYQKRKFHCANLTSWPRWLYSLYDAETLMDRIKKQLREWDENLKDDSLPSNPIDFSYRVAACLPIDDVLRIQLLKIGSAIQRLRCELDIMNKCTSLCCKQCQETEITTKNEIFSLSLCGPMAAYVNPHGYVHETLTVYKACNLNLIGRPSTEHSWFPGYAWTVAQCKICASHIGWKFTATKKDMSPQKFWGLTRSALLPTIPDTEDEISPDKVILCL
Chain of IKZF2 (Q16531 2-1140 partner): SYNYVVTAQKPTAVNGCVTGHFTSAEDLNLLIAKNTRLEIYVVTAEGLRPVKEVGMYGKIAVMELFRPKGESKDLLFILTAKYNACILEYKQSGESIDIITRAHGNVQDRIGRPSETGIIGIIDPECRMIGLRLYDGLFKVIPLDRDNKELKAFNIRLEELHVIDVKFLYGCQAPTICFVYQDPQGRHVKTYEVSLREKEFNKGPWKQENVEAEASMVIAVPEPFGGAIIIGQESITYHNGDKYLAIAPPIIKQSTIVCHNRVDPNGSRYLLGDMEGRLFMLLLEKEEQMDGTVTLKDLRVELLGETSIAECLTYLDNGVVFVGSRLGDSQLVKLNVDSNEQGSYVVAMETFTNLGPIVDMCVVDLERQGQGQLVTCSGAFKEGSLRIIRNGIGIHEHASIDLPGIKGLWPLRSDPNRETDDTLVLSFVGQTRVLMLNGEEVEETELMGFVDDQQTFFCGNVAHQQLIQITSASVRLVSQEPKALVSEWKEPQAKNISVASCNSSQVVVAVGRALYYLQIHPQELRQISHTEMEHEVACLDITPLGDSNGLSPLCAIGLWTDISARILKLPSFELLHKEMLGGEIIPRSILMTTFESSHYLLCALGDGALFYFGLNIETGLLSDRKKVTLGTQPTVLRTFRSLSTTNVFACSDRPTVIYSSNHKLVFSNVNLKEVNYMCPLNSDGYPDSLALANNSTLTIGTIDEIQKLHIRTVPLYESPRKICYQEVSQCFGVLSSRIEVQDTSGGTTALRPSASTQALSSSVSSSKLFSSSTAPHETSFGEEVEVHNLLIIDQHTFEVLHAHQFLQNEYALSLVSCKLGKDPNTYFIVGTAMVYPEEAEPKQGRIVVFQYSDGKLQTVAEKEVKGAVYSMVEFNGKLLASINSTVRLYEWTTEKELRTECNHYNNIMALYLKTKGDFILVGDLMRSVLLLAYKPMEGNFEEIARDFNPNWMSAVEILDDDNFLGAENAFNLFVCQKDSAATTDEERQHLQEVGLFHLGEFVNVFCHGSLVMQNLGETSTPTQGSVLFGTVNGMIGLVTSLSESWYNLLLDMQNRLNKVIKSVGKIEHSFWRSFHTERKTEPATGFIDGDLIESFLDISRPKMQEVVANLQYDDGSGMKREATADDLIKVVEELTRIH
Summary of the method: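 Remaining tagged Helios was read as lytic HiBiT/LgBiT luminescence normalized to DMSO, yielding binned DC50 and Dmax values. Treatment ran 6 h, with compounds at 11 three-fold doses diluted from 1 mM and 0.1% final DMSO. The cells were HEK293T Flp-in with CRISPR knock-in of HiBiT at the IKZF2 N-terminus.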

[3] = target: CRBN/DDB1 (Homo sapiens (Human), UniProt Q96SW2); assay: IC50 measurements for binding to CRBN/DDB1 (HTRF); settings: His tagged CRBN+DDB, Cy5-labeled Thalidomide probe, one hour
Chain of CRBN/DDB1 (Q96SW2 whole entry, species assumed): as the sequence (Q96SW2 whole entry) above
Chain of CRBN/DDB1 (Q16531 whole entry partner, species assumed): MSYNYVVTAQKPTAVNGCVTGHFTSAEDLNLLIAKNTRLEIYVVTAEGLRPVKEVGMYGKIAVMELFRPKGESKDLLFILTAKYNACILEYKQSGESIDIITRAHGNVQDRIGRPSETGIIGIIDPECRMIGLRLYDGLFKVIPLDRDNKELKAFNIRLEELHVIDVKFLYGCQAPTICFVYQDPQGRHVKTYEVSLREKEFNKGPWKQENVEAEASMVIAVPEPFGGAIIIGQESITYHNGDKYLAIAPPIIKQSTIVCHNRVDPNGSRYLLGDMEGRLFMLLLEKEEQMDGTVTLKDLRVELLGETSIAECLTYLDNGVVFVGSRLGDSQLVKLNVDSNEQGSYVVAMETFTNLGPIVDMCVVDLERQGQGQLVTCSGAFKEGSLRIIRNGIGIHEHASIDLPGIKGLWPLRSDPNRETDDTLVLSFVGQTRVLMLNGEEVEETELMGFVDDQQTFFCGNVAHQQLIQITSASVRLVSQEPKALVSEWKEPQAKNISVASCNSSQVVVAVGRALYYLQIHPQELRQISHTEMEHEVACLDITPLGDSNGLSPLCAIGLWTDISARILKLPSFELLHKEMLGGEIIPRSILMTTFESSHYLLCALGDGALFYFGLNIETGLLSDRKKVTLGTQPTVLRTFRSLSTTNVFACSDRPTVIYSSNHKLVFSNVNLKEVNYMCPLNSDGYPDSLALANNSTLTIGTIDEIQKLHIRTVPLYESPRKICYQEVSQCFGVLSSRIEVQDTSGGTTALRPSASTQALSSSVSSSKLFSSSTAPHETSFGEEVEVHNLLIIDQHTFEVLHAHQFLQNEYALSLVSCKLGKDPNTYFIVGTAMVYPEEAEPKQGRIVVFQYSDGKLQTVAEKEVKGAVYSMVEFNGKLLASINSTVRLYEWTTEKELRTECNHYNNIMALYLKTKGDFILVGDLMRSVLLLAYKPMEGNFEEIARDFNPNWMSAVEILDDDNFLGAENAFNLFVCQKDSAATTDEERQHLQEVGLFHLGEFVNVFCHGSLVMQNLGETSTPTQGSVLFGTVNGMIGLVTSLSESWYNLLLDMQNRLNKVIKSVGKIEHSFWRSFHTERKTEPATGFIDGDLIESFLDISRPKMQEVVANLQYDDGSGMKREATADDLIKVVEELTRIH
Summary of the method: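 Serially diluted compounds compete with a Cy5-labeled thalidomide tracer (60 nM) for His-tagged CRBN-DDB1 (2 nM), detected via anti-6His Tb cryptate (0.4 nM); buffer HEPES pH 7.5 with TCEP, Brij-35, NaCl, BSA. One-hour room-temperature incubation, HTRF signal read, IC50 by four-parameter curve.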

Chain of IKZF1 (Q13422 whole entry): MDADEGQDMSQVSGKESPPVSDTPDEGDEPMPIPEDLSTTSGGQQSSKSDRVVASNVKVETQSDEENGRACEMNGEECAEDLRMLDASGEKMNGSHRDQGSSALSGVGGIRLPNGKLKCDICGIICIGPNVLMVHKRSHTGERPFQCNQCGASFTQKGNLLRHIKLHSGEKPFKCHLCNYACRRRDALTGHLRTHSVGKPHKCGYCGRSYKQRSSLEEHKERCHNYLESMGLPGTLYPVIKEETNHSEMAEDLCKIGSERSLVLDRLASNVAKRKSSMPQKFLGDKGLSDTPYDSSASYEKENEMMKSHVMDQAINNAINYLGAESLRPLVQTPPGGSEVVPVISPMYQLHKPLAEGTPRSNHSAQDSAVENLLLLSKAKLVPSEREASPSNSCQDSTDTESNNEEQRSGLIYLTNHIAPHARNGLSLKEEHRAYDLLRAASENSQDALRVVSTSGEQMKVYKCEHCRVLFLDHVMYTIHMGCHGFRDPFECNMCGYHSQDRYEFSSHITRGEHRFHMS
Chain of IKZF1 (Q96SW2 whole entry): as the sequence (Q96SW2 whole entry) above
Chain of IKZF1 (Q16531 2-1140 partner): as the sequence (Q16531 2-1140 partner) above

SMILES	DC50 [1] [nM]	Dmax [1] [%]	DC50 [2] [nM]	Dmax [2] [%]	IC50 [3] [nM]
O=C1CCC(N2Cc3cc(-c4nc(CN5CCCC5)c5ccn(C6CCC6)c5n4)ccc3C2=O)C(=O)N1 (stereo not shown) [Example 217, 3-(5-(7-cyclobutyl-4-(pyrrolidin-1-ylmethyl)-7H-pyrrolo[2,3-d]pyrimidin-2-yl)-1-oxoisoindolin-2-yl) piperidine-2,6-dione]	> 10000	< 20	1 to 10	60 to 80	500 to 1000
O=C1CCC(N2Cc3cc(-c4cc(CN5CCCC5)c5ccn(CCO)c5n4)ccc3C2=O)C(=O)N1 (stereo not shown) [Example 131, 3-(5-(1-(2-hydroxyethyl)-4-(pyrrolidin-1-ylmethyl)-1H-pyrrolo[2,3-b]pyridin-6-yl)-1-oxoisoindolin-2-yl) piperidine-2,6-dione]	> 10000	< 20	10 to 100	60 to 80	1000 to 5000
Cn1ccc2c(CN3CCC3c3ccccc3)cc(-c3ccc4c(c3)CN(C3CCC(=O)NC3=O)C4=O)nc21 (stereo not shown) [Example 71, 3-(5-(1-methyl-4-((2-phenylazetidin-1-yl)methyl)-1H-pyrrolo[2,3-b]pyridin-6-yl)-1-oxoisoindolin-2-yl) piperidine-2,6-dione]	> 10000	20 to 40	1 to 10	> 80	100 to 500
O=C1CCC(N2Cc3cc(-c4cc(CN5CCCC5)c5c(n4)CCCC5)ccc3C2=O)C(=O)N1 (stereo not shown) [Example 79, 3-(1-oxo-5-(4-(pyrrolidin-1-ylmethyl)-5,6,7,8-tetrahydroquinolin-2-yl)isoindolin-2-yl) piperidine-2,6-dione]	> 10000	20 to 40	< 1	> 80	100 to 500
CN(C)c1n[nH]c2c(CN3CCCC3)cc(-c3ccc4c(c3)CN(C3CCC(=O)NC3=O)C4=O)nc12 (stereo not shown) [Example 179, 3-(5-(3-(dimethylamino)-7-(pyrrolidin-1-ylmethyl)-1H-pyrazolo[4,3-b]pyridin-5-yl)-1-oxoisoindolin-2-yl) piperidine-2,6-dione]	10 to 100	40 to 60	< 1	> 80	5000 to 10000
N#CCn1ccc2c(CN3CCCC3)cc(-c3ccc4c(c3)CN(C3CCC(=O)NC3=O)C4=O)nc21 (stereo not shown) [Example 133, 2-(6-(2-(2,6-dioxopiperidin-3-yl)-1-oxoisoindolin-5-yl)-4-(pyrrolidin-1-ylmethyl)-1H-pyrrolo[2,3-b]pyridin-1-yl) acetonitrile]	> 10000	< 20	1 to 10	60 to 80	100 to 500
CC#CCn1ccc2c(CN3CCCC3)cc(-c3ccc4c(c3)CN(C3CCC(=O)NC3=O)C4=O)nc21 (stereo not shown) [Example 148, 3-(5-(1-(but-2-yn-1-yl)-4-(pyrrolidin-1-ylmethyl)-1H-pyrrolo[2,3-b]pyridin-6-yl)-1-oxoisoindolin-2-yl) piperidine-2,6-dione]	> 10000	< 20	1 to 10	60 to 80	100 to 500
O=C1CCC(N2Cc3cc(-c4cc(CN5CCCC5)c5ccn(CCOCc6ccccc6)c5n4)ccc3C2=O)C(=O)N1 (stereo not shown) [Example 130, 3-(5-(1-(2-(benzyloxy)ethyl)-4-(pyrrolidin-1-ylmethyl)-1H-pyrrolo[2,3-b]pyridin-6-yl)-1-oxoisoindolin-2-yl) piperidine-2,6-dione]	> 10000	< 20	1 to 10	40 to 60	100 to 500
Cn1ccc2c(CN3CCCC3)cc(-c3cc4c(cc3Cl)C(=O)N(C3CCC(=O)NC3=O)C4)nc21 (stereo not shown) [Example 83, 3-(6-chloro-5-(1-methyl-4-(pyrrolidin-1-ylmethyl)-1H-pyrrolo[2,3-b]pyridin-6-yl)-1-oxoisoindolin-2-yl) piperidine-2,6-dione]	> 10000	< 20	1 to 10	> 80	1000 to 5000
Cn1ccc2c(Cn3cnc4ccccc43)cc(-c3ccc4c(c3)CN(C3CCC(=O)NC3=O)C4=O)nc21 (stereo not shown) [Example 97, 3-(5-(4-((1H-benzo[d]imidazol-1-yl)methyl)-1-methyl-1H-pyrrolo[2,3-b]pyridin-6-yl)-1-oxoisoindolin-2-yl) piperidine-2,6-dione]	> 10000	< 20	10 to 100	40 to 60	< 100
O=C1CCC(N2Cc3cc(-c4cc(CN5CCCC5)c5[nH]ccc5n4)ccc3C2=O)C(=O)N1 (stereo not shown) [Example 76, 3-(1-oxo-5-(7-(pyrrolidin-1-ylmethyl)-1H-pyrrolo[3,2-b]pyridin-5-yl)isoindolin-2-yl) piperidine-2,6-dione]	> 10000	20 to 40	< 1	> 80	1000 to 5000
Cn1ccc2c(CN3CCC(S(C)(=O)=O)CC3)cc(-c3ccc4c(c3)CN(C3CCC(=O)NC3=O)C4=O)nc21 (stereo not shown) [Example 300, 3-(5-(1-methyl-4-((4-(methylsulfonyl)piperidin-1-yl)methyl)-1H-pyrrolo[2,3-b]pyridin-6-yl)-1-oxoisoindolin-2-yl) piperidine-2,6-dione]	> 10000	< 20	10 to 100	60 to 80	1000 to 5000
C[C@@H]1CC[C@@H](C)N1Cc1cc(-c2ccc3c(c2)CN(C2CCC(=O)NC2=O)C3=O)nc2c1ccn2C (stereo partly drawn) [Example 108, 3-(5-(4-(((2R,5R)-2,5-dimethylpyrrolidin-1-yl)methyl)-1-methyl-1H-pyrrolo[2,3-b]pyridin-6-yl)-1-oxoisoindolin-2-yl) piperidine-2,6-dione]	> 10000	< 20	1 to 10	60 to 80	500 to 1000
O=C1CCC(N2Cc3cc(-c4cc(CN5CCC(F)C5)c5cc[nH]c5n4)ccc3C2=O)C(=O)N1 (stereo not shown) [Example 127, 3-(5-(4-((3-fluoropyrrolidin-1-yl)methyl)-1H-pyrrolo[2,3-b]pyridin-6-yl)-1-oxoisoindolin-2-yl) piperidine-2,6-dione]	100 to 1000	20 to 40	1 to 10	> 80	100 to 500
Cn1ccc2c(N3CCCC3)cc(-c3ccc4c(c3)CN(C3CCC(=O)NC3=O)C4=O)nc21 (stereo not shown) [Example 114, 3-(5-(1-methyl-4-(pyrrolidin-1-yl)-1H-pyrrolo[2,3-b]pyridin-6-yl)-1-oxoisoindolin-2-yl) piperidine-2,6-dione]	> 10000	< 20	10 to 100	20 to 40	1000 to 5000
O=C1CCC(N2Cc3cc(-c4cc(CN5CCCC5)c5cn(C6CCC6)nc5n4)ccc3C2=O)C(=O)N1 (stereo not shown) [Example 316, 3-(5-(2-cyclobutyl-4-(pyrrolidin-1-ylmethyl)-2H-pyrazolo[3,4-b]pyridin-6-yl)-1-oxoisoindolin-2-yl) piperidine-2,6-dione]	10 to 100	20 to 40	1 to 10	> 80	100 to 500
Nc1n[nH]c2c(CN3CCC(F)C3)cc(-c3ccc4c(c3)CN(C3CCC(=O)NC3=O)C4=O)nc12 (stereo not shown) [Example 201, 3-(5-(3-amino-7-((3-fluoropyrrolidin-1-yl)methyl)-1H-pyrazolo[4,3-b]pyridin-5-yl)-1-oxoisoindolin-2-yl) piperidine-2,6-dione]	1000 to 10000	20 to 40	10 to 100	60 to 80	500 to 1000
